Assay results as given in patent publication US7019156B2, “Tumor inhibiting gallium compounds” (Faustus Forschungs Cie. Translational Cancer Research GmbH, priority 2001, dated 2006).

What was measured:
Assay type in all cases: cell-based
[1] = test system: parvicellular bronchial carcinoma cell line (DMS 114); experiment: Tumor-inhibiting activity on cell line; settings: compared with IC50 <0.003 mg/ml tumor types
[2] = test system: renal-cell carcinoma xenografts; experiment: Tumor-inhibiting activity on xenografts; settings: one of two renal-cell carcinoma xenografts
prostrate carcinomas = experiment: Tumor-inhibiting activity, selectivity for tumor types
[3] = test system: macrocellular bronchial carcinomas; experiment: as above
mammary carcinomas = experiment: as above
[4] = test system: stomach carcinoma xenograft; experiment: Tumor-inhibiting activity on xenograft; settings: compared with IC50 <0.003 mg/ml tumor types
melanoma xenograft = experiment: Tumor-inhibiting activity on xenograft; settings: compared with IC50 <0.003 mg/ml tumor types
[5] = test system: ovarian (OVCAR3) cell line; experiment: Tumor-inhibiting activity on cell line; settings: compared with IC50 <0.003 mg/ml tumor types

- IC50 (prostrate carcinomas): < 3 µg/mL
- IC50 [3]: < 3 µg/mL
- IC50 (mammary carcinomas): < 3 µg/mL
Substance: bis(2-acetylpyridine-4,4-dimethyl thiosemicarbazonato-N1, N2,S)gallium(III) tetrachlorogallate(III)
- tumor-inhibiting effect [1]: Comparable effects
- tumor-inhibiting activity [2]: above-average activity
- tumor-inhibiting effect [4]: Comparable effects
- tumor-inhibiting effect (melanoma xenograft): Comparable effects
- tumor-inhibiting effect [5]: Comparable effects
